# Test results published in publication PMC10893631, “Receptor-based pharmacophore modeling, molecular docking, synthesis and biological evaluation of novel VEGFR-2, FGFR-1, and BRAF multi-kinase inhibitors” (BMC Chemistry, 2024).
# Key:
# Experiment in all cases: NCI SRB growth inhibition (single dose 10 µM / five-dose)
# Format in all cases: cell-based, human
# [1] = tested on: UACC-62; conditions: Homo sapiens; UACC-62 (Melanoma), 10 µM; read-out: GI%
# Experimental: (§1) Screening of cytotoxic activity against a panel of sixty human tumor cell lines The selected compounds by NCI were evaluated for their anticancer activity in a two- stage process. […] Then, the output from the single dose screen is reported as a mean graph. […] Assay protocol. […] For a typical screening experiment, cells are inoculated into 96 well microtiter plates in 100 µL at plating densities ranging from 5000 to 40,000 cells/well depending on the doubling time of individual cell lines. […] After 24 h, two plates of each cell line are fixed in situ with TCA, to represent a measurement of the cell population for each cell line at the time of drug addition (Tz). The experimental drugs are solubilized in dimethyl sulfoxide at 400-fold the desired final maximum test concentration and stored frozen prior to use. At the time of drug addition, an aliquot of frozen concentrate is thawed and diluted to twice the desired final maximum test concentration with complete medium containing 50 µg/mL gentamicin. Additional four, 10-fold or ½ log serial dilutions are made to provide a total of five drug concentrations plus control. Aliquots of 100 mL of these different drug dilutions are added to the appropriate microtiter wells already containing […] of medium, resulting in the required final drug concentrations. […] For adherent cells, the assay is terminated by the addition of cold TCA. […] The supernatant is discarded, and the plates are washed five times with tap water and air dried. Sulforhodamine B (SRB) solution ([…]) at 0.4% (w/v) in 1% acetic acid is added to each well, and plates are incubated for 10 min at room temperature. After staining, unbound dye is removed by washing five times with 1% acetic acid and the plates are air dried. […] Using the seven absorbance measurements [time zero, (Tz), control growth, (C), and test growth in the presence of drug at the five concentration levels (Ti)], the percentage growth is calculated at each of the drug concentrations levels. Percentage growth inhibition is calculated as: [(Ti Tz)/(C–Tz)] x 100 for concentrations for which Ti>/=Tz and [(Ti-Tz)/Tz] x 100 for concentrations for which Ti < Tz. Three dose response parameters are calculated for each experimental agent. […] The drug concentration resulting in total growth inhibition (TGI) is calculated from Ti = Tz. […] Values are calculated for each of these three parameters if the level of activity is reached; however, if the effect is not reached or is exceeded, the value for that parameter is expressed as greater or less than the maximum or minimum concentration tested.
# [2] = tested on: A549/ATCC; conditions: Homo sapiens; A549/ATCC (Non-small cell lung cancer), 10 µM; read-out: GI%
# Experimental: as §1
# [3] = tested on: CCRF-CEM; conditions: Homo sapiens; CCRF-CEM (Leukemia), 10 µM; read-out: GI%
# Experimental: as §1
# [4] = tested on: NCI-H460; conditions: Homo sapiens; NCI-H460 (Non-small cell lung cancer), 10 µM; read-out: GI%
# Experimental: as §1
# [5] = tested on: EKVX; conditions: Homo sapiens; EKVX (Non-small cell lung cancer), 10 µM; read-out: GI%
# Experimental: as §1
# [6] = tested on: SF-295; conditions: Homo sapiens; SF-295 (CNS cancer), 10 µM; read-out: GI%
# Experimental: as §1
# [7] = tested on: SW-620; conditions: Homo sapiens; SW-620 (Colon cancer), 10 µM; read-out: GI%
# Experimental: as §1
# [8] = tested on: BT-549; conditions: Homo sapiens; BT-549 (Breast cancer), 10 µM; read-out: GI%
# Experimental: as §1
# [9] = tested on: OVCAR-8; conditions: Homo sapiens; OVCAR-8 (Ovarian cancer), 10 µM; read-out: GI%
# Experimental: as §1
# [10] = tested on: SF-268; conditions: Homo sapiens; SF-268 (CNS cancer), 10 µM; read-out: GI%
# Experimental: as §1
# [11] = tested on: CAKI-1; conditions: Homo sapiens; CAKI-1 (Renal cancer), 10 µM; read-out: GI%
# Experimental: as §1
# [12] = tested on: SK-MEL-28; conditions: Homo sapiens; SK-MEL-28 (Melanoma), 10 µM; read-out: GI%
# Experimental: as §1
# [13] = tested on: M14; conditions: Homo sapiens; M14 (Melanoma), 10 µM; read-out: GI%
# Experimental: as §1
# [14] = tested on: SN12C; conditions: Homo sapiens; SN12C (Renal cancer), 10 µM; read-out: GI%
# Experimental: as §1
# [15] = tested on: MDA-MB-231/ATCC; conditions: Homo sapiens; MDA-MB-231/ATCC (Breast cancer), 10 µM; read-out: GI%
# Experimental: as §1
# [16] = tested on: HS 578 T; conditions: Homo sapiens; HS 578 T (Breast cancer), 10 µM; read-out: GI%
# Experimental: as §1
# [17] = tested on: MDA-MB-468; conditions: Homo sapiens; MDA-MB-468 (Breast cancer), 10 µM; read-out: GI%
# Experimental: as §1
# [18] = tested on: MCF7; conditions: Homo sapiens; MCF7 (Breast cancer), 10 µM; read-out: GI%
# Experimental: as §1
# [19] = tested on: KM12; conditions: Homo sapiens; KM12 (Colon cancer), 10 µM; read-out: GI%
# Experimental: as §1
# [20] = tested on: MDA-MB-435; conditions: Homo sapiens; MDA-MB-435 (Melanoma), 10 µM; read-out: GI%
# Experimental: as §1
# [21] = tested on: SF-539; conditions: Homo sapiens; SF-539 (CNS cancer), 10 µM; read-out: GI%
# Experimental: as §1
# [22] = tested on: TK-10; conditions: Homo sapiens; TK-10 (Renal cancer), 10 µM; read-out: GI%
# Experimental: as §1
# [23] = tested on: SR; conditions: Homo sapiens; SR (Leukemia), 10 µM; read-out: GI%
# Experimental: as §1
# [24] = tested on: 786–0; conditions: Homo sapiens; 786–0 (Renal cancer), 10 µM; read-out: GI%
# Experimental: as §1
# [25] = tested on: RXF 393; conditions: Homo sapiens; RXF 393 (Renal cancer), 10 µM; read-out: GI%
# Experimental: as §1
# [26] = tested on: SK-OV-3; conditions: Homo sapiens; SK-OV-3 (Ovarian cancer), 10 µM; read-out: GI%
# Experimental: as §1
Compound,inhibition at 10 µM [1],inhibition at 10 µM [2],inhibition at 10 µM [3],inhibition at 10 µM [4],inhibition at 10 µM [5],inhibition at 10 µM [6],inhibition at 10 µM [7],inhibition at 10 µM [8],inhibition at 10 µM [9],inhibition at 10 µM [10],inhibition at 10 µM [11],inhibition at 10 µM [12],inhibition at 10 µM [13],inhibition at 10 µM [15],inhibition at 10 µM [16],inhibition at 10 µM [17],inhibition at 10 µM [18],inhibition at 10 µM [19],inhibition at 10 µM [20],inhibition at 10 µM [21],other results
"COc1ccc(OC)c(C=NNC(=O)c2ccc3[nH]c(-c4ccccc4)nc3c2)c1 [8f, N'-(2,5-Dimethoxybenzylidene)-2-phenyl-1H-benzo[d]imidazole-5-carbohydrazide]",35.5%,17.2%,80.5%,15.8%,22.7%,31.4%,30.3%,38.2%,52.6%,36.6%,41.5%,29.1%,34.4%,38%,49.9%,24.7%,54.1%,30.5%,73.7%,36.9%,inhibition at 10 µM [14]: 35.2%; inhibition at 10 µM [22]: 19%; inhibition at 10 µM [23]: 36.3%; inhibition at 10 µM [24]: 18.6%; inhibition at 10 µM [25]: 50%
"COc1cc(C=NNC(=O)c2ccc3[nH]c(-c4ccccc4)nc3c2)cc(OC)c1OC [8g, 2-Phenyl-N'-(3,4,5-trimethoxybenzylidene)-1H-benzo[d]imidazole-5-carbohydrazide]",70.4%,29.3%,62%,56.3%,12.2%,54.1%,37.9%,35.4%,48.7%,32%,49.7%,40.4%,43.3%,30.5%,51%,39.2%,86%,36.4%,48.5%,49.8%,inhibition at 10 µM [14]: 32.2%; inhibition at 10 µM [22]: 6.66%; inhibition at 10 µM [23]: 17.6%; inhibition at 10 µM [24]: 27.8%; inhibition at 10 µM [25]: 30.8%
"O=C(NN=Cc1cccc(O)c1)c1ccc2[nH]c(-c3ccc(Cl)cc3)nc2c1 [8p, 2-(4-Chlorophenyl)-N'-(3-hydroxybenzylidene)-1H-benzo[d]imidazole-5-carbohydrazide]",19.6%,7.53%,71.9%,56.6%,7.59%,11.8%,6.31%,< 5%,19%,24.2%,< 5%,16%,25.4%,45.2%,27.1%,65.8%,72.3%,62.7%,15.2%,32.4%,inhibition at 10 µM [26]: 36.2%; inhibition at 10 µM [22]: < 5%; inhibition at 10 µM [23]: 26.4%; inhibition at 10 µM [24]: 22.2%; inhibition at 10 µM [25]: 31.6%
"COc1ccc(C=NNC(=O)c2ccc3[nH]c(-c4ccc(Cl)cc4)nc3c2)cc1O [8s, 2-(4-Chlorophenyl)-N'-(3-hydroxy-4-methoxybenzylidene)-1H-benzo[d]imidazole-5-carbohydrazide]",37.5%,7.66%,> 100%,63.8%,37%,85%,69.6%,42.9%,43.2%,72.7%,18.5%,70.8%,42.1%,75.1%,86.9%,88.7%,84.9%,68.4%,89.9%,47.2%,inhibition at 10 µM [14]: 31.3%; inhibition at 10 µM [22]: < 5%; inhibition at 10 µM [23]: 77.2%; inhibition at 10 µM [24]: 52%; inhibition at 10 µM [25]: 69.1%
"COc1ccc(OC)c(C=NNC(=O)c2ccc3[nH]c(-c4ccc(Cl)cc4)nc3c2)c1 [8t, 2-(4-Chlorophenyl)-N'-(2,5-dimethoxybenzylidene)-1H-benzo[d]imidazole-5-carbohydrazide]",24.3%,8.76%,56.1%,17.5%,42.5%,51.9%,7.98%,25.7%,17.2%,43%,38.4%,14.6%,30.9%,89.7%,48.8%,30.4%,48.1%,23.3%,14.3%,45.3%,inhibition at 10 µM [26]: 15.1%; inhibition at 10 µM [22]: 10.9%; inhibition at 10 µM [23]: 31.4%; inhibition at 10 µM [24]: 26.6%; inhibition at 10 µM [25]: 96.5%
